From PubChem BioAssay (NCI) come the findings set out here.

Several values for one entry are separate records, joined by “and”; a condition that tells them apart may be missing. Equal values may be shown once.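 1) Cells in 96-well plates. 2) Compound, 48 h, 5 concentrations. 3) Linear interpolation between surrounding doses. 4) Unreached endpoint = highest concentration. The concentration for 50% growth inhibition is given as GI50. The concentration for full growth arrest is given as TGI.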

What all share (assay): NCI-60 cell line screen, 48 h
Experiment [1] deals with DLD-1 colon.
Experiment [2] has as its system KM20L2 colon.
The subject of experiment [3] is M19-MEL melanoma.
Experiment [4] relates to XF 498 CNS.
The subject of experiment [5] is 786-0 renal.
For experiment [6], the system named is DU-145 prostate.
Experiment [7] deals with HS 578T breast.
Experiment [8] relates to MDA-MB-231 breast.
For experiment [9], the system named is MDA-MB-435.
Experiment [10] deals with MDA-N.
Experiment [11] deals with PC-3 prostate.
In experiment [12] the test system is T-47D breast.
For experiment [13], the system named is DMS 114 small cell lung.
Experiment [14] deals with DMS 273 small cell lung.

In the case of `COCCOCOC(C)(C)[C@H](CCO)O[Si](c1ccccc1)(c1ccccc1)C(C)(C)C`, the TGI in experiment [1] was 22.4 µM; in experiment [2], 24.4 µM; in [3], 26.9 µM; in experiment [4], 13.5 µM.
Consider `C/C(=N\NC(=S)Nc1ccc([N+](=O)[O-])cc1)c1nc2ncccc2[nH]1`, for which the TGI is 11.6 µM in experiment [5]; > 100 µM in experiment [6]; 6.51 µM in experiment [7]; > 100 µM in experiment [8]; 4.42 µM in experiment [9]; > 100 µM in [10]. The TGI came out at 16.9 µM in experiment [11] and 22.9 µM in experiment [12].
Consider `c1ccc2cc3c(cc2c1)OP1(Oc2cccc4cccnc24)(O3)Oc2cc3ccccc3cc2O1`, for which the TGI is > 100 µM in experiment [1]; > 23 µM in experiment [13]; 12.4 µM in experiment [14]; 20.3 µM in [2]; 38.1 µM in experiment [3]; 9.98 µM in experiment [4].
Take `O=C1c2ccccc2C(=O)c2c1cc1c(c2[N+](=O)[O-])OCO1`: the GI50 in experiment [6] is 2.58 µM; in experiment [7] it was 2.28 µM; in experiment [8], 1.45 µM; in [9], 2.91 µM; in [11], 1.29 µM; in experiment [12] it was 0.551 µM. Also, the TGI came out at 8.43 µM in experiment [6]; 6.02 µM in experiment [7]; 6.79 µM in experiment [8]; 9.58 µM in [9]; 4.66 µM in experiment [11]; 6.33 µM in [12].
For the compound `C/C(N=NS(=O)(=O)c1ccc(C)cc1)=C1\C=CC=CN1O`, the TGI in [5], in experiment [1], in experiment [13], in experiment [14], in [2] and in [3] was > 100 µM throughout. Also, in [4], the TGI is > 100 µM.
As to `O=C(O)CCCc1ccccc1`, the GI50 was > 1000 µM in experiment [6]; > 1000 µM in experiment [7]; 338 µM and > 1000 µM in [8]; 292 µM and > 1000 µM in experiment [9]; 364 µM and > 1000 µM in [11]; 203 µM and > 1000 µM in experiment [12]. The TGI in experiment [6] is > 1000 µM; in [7], 625 µM and > 1000 µM; in experiment [8], > 1000 µM; in experiment [9], > 1000 µM; in experiment [10], > 1000 µM; in [11], > 1000 µM. Moreover, the TGI in experiment [12] was > 1000 µM.
`Nc1n[nH]c(CCCCCCCc2nc(N)n[nH]2)n1`: the TGI in experiment [1], in experiment [13] and in [3] was > 100 µM throughout.
For `OC1COC(OCc2ccccc2)C(O)C1O` (stereo not given), the TGI in experiment [5], in experiment [6], in [7], in experiment [8], in [9] and in experiment [10] was > 100 µM throughout. Further, the TGI in experiment [11] and in [12] was > 100 µM each time.
On to `O=C(O)CC12CC3CC(CC(O)(C3)C1)C2`, for which the TGI was > 100 µM in experiment [5]; > 100 µM in experiment [6]; 59.9 µM in experiment [7]; > 100 µM in experiment [8]; > 100 µM in [9]; > 100 µM in [10]. Besides, the TGI in experiment [11] and in experiment [12] was > 100 µM throughout.
As to `C=CCNC(=O)CN(CC(=O)OC)C1CCCCC1N(CC(=O)OC)CC(=O)OC` (stereo not given), the TGI in [6], in [7], in experiment [8], in [9], in [10] and in experiment [11] was > 100 µM in each case. The TGI in [12] was > 100 µM.
Turning to `CC(C)=CCC/C(C)=C/CCC1(C)C=Cc2c(c3ccccc3oc2=O)O1` (stereo not given), the TGI in experiment [1] was found to be 28.5 µM; in experiment [13] it was 29.8 µM; in experiment [14] it was 32 µM; in [2] it was 34 µM; in experiment [3] it was 31.4 µM; in [4], 29.4 µM.
As to `COc1cc(C(=O)C2CC3(CCC2(O)c2cc(OC)c(OC)c(OC)c2)CC(=O)Nc2ccccc2C3=O)cc(OC)c1OC` (stereo not given), the TGI in experiment [6], in experiment [7], in experiment [8], in experiment [9], in experiment [10] and in experiment [11] was > 100 µM throughout. The TGI in experiment [12] is > 100 µM.
Regarding `Cc1cn(C2CC(O)C(Cn3nncc3Cn3ncc(=O)[nH]c3=O)O2)c(=O)[nH]c1=O` (stereo not given), the TGI in [6], in experiment [7], in experiment [8], in experiment [9], in experiment [10] and in [11] was > 100 µM in each case. In addition, the TGI in experiment [12] was > 100 µM.
As to `COc1cc(/C=C/C2=C(C#N)C(=O)OC2(C)C)ccc1O`, the TGI in experiment [1], in experiment [14], in experiment [2] and in [3] was > 100 µM each time.
For the compound `Cc1cccc(CNc2ncnc3[nH]ncc23)c1`, the TGI in experiment [5], in experiment [6], in experiment [7], in experiment [8], in [9] and in experiment [10] was > 100 µM each time. The TGI in experiment [11] and in experiment [12] was > 100 µM each time.
In the case of `CC(C)=CC(=O)OC1C2C(C)=CC(O)C(O)C2(C)C2C3(O)OCC24C(CC(=O)OC14)C(C)C3O` (stereo not given), the TGI worked out at 0.485 µM in [1]; 0.0567 µM in [13]; 0.101 µM in experiment [14]; 4.57 µM in experiment [2]; 0.127 µM in experiment [3]; 0.587 µM in [4].
As for `O=C(O)C12CC3CC(C1)C2C=C3P(=O)(O)O` (stereo not given), the TGI in experiment [1], in experiment [13], in [14], in experiment [2] and in experiment [3] was > 100 µM throughout.
For the compound `CC1SC(c2ccc(Cl)cc2)N(CCc2cccs2)C1=O` (stereo not given), the GI50 in experiment [6] was 1.83 µM; in experiment [7], 1.53 µM; in [8] it was 1.55 µM; in [9] it was 1.51 µM; in [11], 1.75 µM; in experiment [12] it was 1.29 µM. In addition, the TGI in [6] is 4.87 µM; in experiment [7], 4.1 µM; in experiment [8] it was 3.28 µM; in experiment [9] it was 3.06 µM; in experiment [11], 5.07 µM; in experiment [12], 6.64 µM.
With `Cc1c(C2=NN=C(N=Nc3c(O)cccc3O)/C2=C/c2ccccc2)c(=O)n(-c2ccccc2)n1C`, the TGI in experiment [1], in experiment [13], in experiment [14], in [2], in experiment [3] and in experiment [4] was > 100 µM throughout.
For the compound `C=C1C2CCC3(CCC4C5(C)CCCC4(C=[N+](CCO)C5)C3C2)C1O` (stereo not given), the TGI in [5], in experiment [6], in [7], in experiment [8], in experiment [9] and in experiment [10] was > 100 µM throughout. Besides, the TGI in [11] and in [12] was > 100 µM throughout.
